Test results taken from the supplement of paper PMC10307832.

Tests used:
Assay in all cases: relative viability (nuclei count vs DMSO), 5 days (fraction); higher = more cells survive
BI-2536 + Vorinostat = compound: CC[C@@H]1C(=O)N(C)c2cnc(Nc3ccc(C(=O)NC4CCN(C)CC4)cc3OC)nc2N1C1CCCC1 [BI-2536] + O=C(CCCCCCC(=O)Nc1ccccc1)NO [Vorinostat] (partner 1 µM)
Outline: (§1)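 Medians of duplicate plates are given as relative viability. That measure is the nuclei count in treated wells divided by the count in vehicle wells. Counts were taken on 4× images of lung cancer cell lines in 1536-well plates, 5 days after pin-tool dosing the day after seeding with one drug alone or a fixed anchor-drug dose plus five library-drug doses (not always all listed) in √10 steps.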

[1] = compound: CC1CC(=O)N(C2=CN=C(N=C2N1C3CCCC3)NC4=C(C=C(C=C4)C(=O)NC5CCN(CC5)C)OC)C [NPK76-II-72-1] + N=C(N)NC(=N)NCCc1ccccc1 [Phenformin] (partner 250 µM)
Outline: as §1

BI-2536 + Trametinib = compound: CC[C@@H]1C(=O)N(C)c2cnc(Nc3ccc(C(=O)NC4CCN(C)CC4)cc3OC)nc2N1C1CCCC1 [BI-2536] + CC(=O)Nc1cccc(-n2c(=O)n(C3CC3)c(=O)c3c(Nc4ccc(I)cc4F)n(C)c(=O)c(C)c32)c1 [Trametinib] (partner 0.02 µM)
Outline: as §1

BI-2536 + Pictilisib = compound: CC[C@@H]1C(=O)N(C)c2cnc(Nc3ccc(C(=O)NC4CCN(C)CC4)cc3OC)nc2N1C1CCCC1 [BI-2536] + CS(=O)(=O)N1CCN(Cc2cc3nc(-c4cccc5[nH]ncc45)nc(N4CCOCC4)c3s2)CC1 [Pictilisib] (partner 1 µM)
Outline: as §1

| Cell Line | relative viability (BI-2536 + Vorinostat; first compound 0.01 µM) | relative viability (BI-2536 + Vorinostat; first compound 0.03162 µM) | relative viability (BI-2536 + Vorinostat; first compound 0.1 µM) | relative viability (BI-2536 + Vorinostat; first compound 0.3162 µM) | relative viability (BI-2536 + Vorinostat; first compound 1 µM) | relative viability ([1]; first compound 0.01 µM) | relative viability ([1]; first compound 0.03162 µM) | relative viability ([1]; first compound 0.1 µM) | relative viability ([1]; first compound 0.3162 µM) | relative viability ([1]; first compound 1 µM) | relative viability (BI-2536 + Trametinib; first compound 0.01 µM) | relative viability (BI-2536 + Trametinib; first compound 0.03162 µM) | relative viability (BI-2536 + Trametinib; first compound 0.1 µM) | relative viability (BI-2536 + Trametinib; first compound 0.3162 µM) | relative viability (BI-2536 + Trametinib; first compound 1 µM) | relative viability (BI-2536 + Pictilisib; first compound 0.01 µM) | relative viability (BI-2536 + Pictilisib; first compound 0.03162 µM) | relative viability (BI-2536 + Pictilisib; first compound 0.1 µM) | relative viability (BI-2536 + Pictilisib; first compound 0.3162 µM) | relative viability (BI-2536 + Pictilisib; first compound 1 µM) |
| --- | --- | --- | --- | --- | --- | --- | --- | --- | --- | --- | --- | --- | --- | --- | --- | --- | --- | --- | --- | --- |
| NCI-H596 | 0.644 | 0.664 | 0.551 | 0.228 | 0.206 | 0.649 | 0.777 | 0.789 | 0.782 | 0.774 | 0.758 | 0.798 | 0.721 | 0.414 | 0.256 | 0.376 | 0.293 | 0.198 | 0.215 | 0.205 |
| A-427 | 0.871 | 0.859 | 0.296 | 0.19 | 0.165 | 0.263 | 0.309 | 0.341 | 0.295 | 0.397 | 0.733 | 0.662 | 0.605 | 0.184 | 0.189 | 0.776 | 0.707 | 0.606 | 0.0766 | 0.122 |
| EMC-BAC-2 | 0.468 | 0.416 | 0.171 | 0.144 | 0.131 | 0.521 | 0.546 | 0.54 | 0.55 | 0.634 | 0.854 | 0.851 | 0.819 | 0.303 | 0.277 | 0.502 | 0.559 | 0.305 | 0.162 | 0.163 |
| NCI-H441 | 0.668 | 0.601 | 0.263 | 0.212 | 0.178 | 0.945 | 0.917 | 0.876 | 0.672 | 0.886 | 0.517 | 0.29 | 0.158 | 0.154 | 0.162 | 0.464 | 0.211 | 0.138 | 0.17 | 0.117 |
| LCLC-103H | 0.767 | 0.776 | 0.265 | 0.168 | 0.239 | 0.273 | 0.363 | 0.342 | 0.329 | 0.342 | 0.671 | 0.711 | 0.69 | 0.336 | 0.277 | 0.585 | 0.568 | 0.508 | 0.711 | 0.144 |
| HCC-827 | 0.884 | 0.943 | 0.665 | 0.222 | 0.227 | 0.407 | 0.448 | 0.407 | 0.409 | 0.404 | 0.594 | 0.538 | 0.506 | 0.324 | 0.225 | 0.917 | 1.02 | 0.976 | 0.533 | 0.339 |
| NCI-H1355 | 0.584 | 0.66 | 0.37 | 0.171 | 0.152 | 0.408 | 0.458 | 0.455 | 0.45 | 0.456 | 0.428 | 0.47 | 0.46 | 0.176 | 0.174 | 0.477 | 0.43 | 0.227 | 0.161 | 0.184 |
| NCI-H1734 | 0.734 | 0.543 | 0.17 | 0.165 | 0.169 | 0.374 | 0.38 | 0.379 | 0.427 | 0.425 | 0.723 | 0.638 | 0.593 | 0.173 | 0.165 | 0.402 | 0.387 | 0.347 | 0.17 | 0.216 |
| HARA | 0.626 | 0.511 | 0.422 | 0.0897 | 0.108 | 0.419 | 0.408 | 0.486 | 0.434 | 0.509 | 0.765 | 0.971 | 0.545 | 0.0894 | 0.156 | 0.372 | 0.535 | 0.147 | 0.072 | 0.0745 |
| HCC-15 | 0.675 | 0.769 | 0.615 | 0.137 | 0.141 | 0.456 | 0.564 | 0.462 | 0.444 | 0.494 | 0.389 | 0.319 | 0.364 | 0.128 | 0.125 | 0.746 | 0.795 | 0.365 | 0.124 | 0.117 |
| LCLC-97TM1 | 0.721 | 0.787 | 0.0652 | 0.078 | 0.0571 | 0.401 | 0.464 | 0.388 | 0.398 | 0.416 | 0.189 | 0.179 | 0.2 | 0.0929 | 0.0902 | 0.182 | 0.185 | 0.127 | 0.11 | 0.0962 |
| RERF-LC-KJ | 0.731 | 0.531 | 0.348 | 0.224 | 0.255 | 0.405 | 0.416 | 0.425 | 0.388 | 0.52 | 0.884 | 0.953 | 0.527 | 0.186 | 0.225 | 0.565 | 0.48 | 0.249 | 0.145 | 0.206 |
| NCI-H1651 | 0.492 | 0.553 | 0.328 | 0.123 | 0.0939 | 0.377 | 0.314 | 0.314 | 0.307 | 0.318 | 0.786 | 0.868 | 0.789 | 0.518 | 0.123 | 0.524 | 0.372 | 0.488 | 0.0623 | 0.055 |
| NCI-H2170 | 0.787 | 0.736 | 0.159 | 0.144 | 0.175 | 0.412 | 0.432 | 0.402 | 0.404 | 0.461 | 0.945 | 0.916 | 0.775 | 0.137 | 0.176 | 0.342 | 0.295 | 0.192 | 0.184 | 0.168 |
| NCI-H2023 | 0.684 | 0.549 | 0.154 | 0.0827 | 0.0741 | 0.43 | 0.422 | 0.455 | 0.398 | 0.43 | 0.53 | 0.528 | 0.25 | 0.113 | 0.102 | 0.218 | 0.211 | 0.091 | 0.0927 | 0.094 |
| LC-2-ad | 0.63 | 0.274 | 0.181 | 0.198 | 0.221 | 0.531 | 0.607 | 0.558 | 0.494 | 0.665 | 0.913 | 0.803 | 0.672 | 0.224 | 0.239 | 0.552 | 0.192 | 0.0937 | 0.0909 | 0.0871 |
